What was measured:
Format in all cases: cell-based
[1] = test system: self-inactivating pseudo-typed HIV-1 (sinHIV-GFP); assay: sinHIV-GFP infection screen of SupT1 cells expressing nuclear random peptide library (FACS); conditions: clones isolated after 12 rounds of infection/selection; compared to the mCherry control
Protocol: A retroviral random peptide library localized to the nucleus, 3XF(GGS)3 NLS RPL, was used to search for novel inhibitors of HIV-1. In order to screen a population of SupT1 expressing this library, a self-inactivating pseudo-typed HIV-1 carrying a pCMV-GFP expression cassette was utilized. The 3XF(GGS)3 NLS RPL SupT1 cells and cells expressing pBMN.i.mCherry were then screened by infection with sinHIV-GFP. 72 hours post-infection, the cells were sorted by Fluorescence Activated Cell Sorting (FACS) based on the expression of GFP, retaining and expanding GFP-negative cells in culture. […] Following 12 rounds of infection, selection of non-fluorescent cells and amplification of the 3XF(GGS)3 NLS RPL expressing SupT1 cells, eight clones were isolated, and expanded in culture.

HIV-1 PR [2] = target: T1, HIV-1 PR (Human immunodeficiency virus type 1 group M subtype B, UniProt P04585); conditions: HEK 293T co-transfected with p55 and PR, 48 hours post-transfection, PI present
Protocol: Transfected cells were analyzed 48 hours post-transfection with anti-p24 antibody. […] Quantification of the Western blots by IMAGEJ™ (ImageJ™) software. Band intensities are plotted as a ratio of p24 to p55.
We performed a biochemical assay to assess PR activity based on its ability to cleave one of its natural substrates—the p55 Gag poly-protein. For this purpose, p96ZM651gag-opt (from the NIH AIDS reagent program) with humanized codons for optimal expression, was used as substrate. Cells were co-transfected with p55 and PR in the presence or absence of Ritonavir as PI. Cells were then analyzed by western blot 48 hours post-transfection with antibodies against HIV p24, capsid (NIH AIDS reagent program).

HIV-1 PR [3] = target: T1, HIV-1 PR; conditions: 293T cells, PR/RT cleavage site, added as PI
HIV-1 PR [4] = target: T1, HIV-1 PR
Description: For that purpose, the well-characterized PR/RT and RT/IN HIV-1 boundaries were introduced between the Gal4 domains.

HIV-1 PR [5] = target: T1, HIV-1 PR; conditions: 10 μM; Gal4/PR SupT1 clones, 1 μg/mL Dox
SupT1 cells = assay: Toxicity of PI to cells during the Gal4/library/PR screen; conditions: 100.M Indinavir, with PR as part of a fusion, time frame required for the screen
Description: The screen starts with the addition of Dox. In alternative embodiments, cells can be non-fluorescent and not contain a Gal4/library fusion protein at all, or they can express a fusion protein cleaved by HIV-1 PR or cellular proteases. Cells expressing a non-cleaved fusion can be fluorescent (FIG. 10A panel a) as they will be able to activate the E2-Crimson reporter. This population is not of interest in this screen. In alternative embodiments, the non-fluorescent population is sorted and expanded (FIG. 10A panel b). In alternative embodiments, cells are then treated again with Dox, but this time in the presence of PI (100.M Indinavir). We have shown that Indinavir at this concentration, and PR as part of a fusion, are not toxic at least for the time frame required for the screen. Only the subpopulation of cells that express a substrate specific for PR should turn fluorescent and thus be E2-Crimson positive (FIG. 10A panel c). In alternative embodiments, this population is sorted and amplified (FIG. 10A panel d) and used to obtain individual clonal populations by growing individual cells in a 96-well format.

Thr Arg Arg Val Ala His Asn Ser Glu (TRRVAHNSE) [Clone 2]
decrease in sinHIV-GFP infection rate [1]: largest decrease

CC(C)c1nc(CN(C)C(=O)N[C@H](C(=O)N[C@@H](Cc2ccccc2)C[C@H](O)[C@H](Cc2ccccc2)NC(=O)OCc2cncs2)C(C)C)cs1 [Ritonavir]
p55 Gag poly-protein processing by PR (HIV-1 PR [2]): poly-protein processing is hindered

CC(C)CN(C[C@@H](O)[C@H](Cc1ccccc1)NC(=O)O[C@H]1CO[C@H]2OCC[C@H]21)S(=O)(=O)c1ccc(N)cc1 [Darunavir, darunavir]
reversal of PR-dependent reduction in green fluorescence (HIV-1 PR [3]): the trend was reversed | inhibition of PR-dependent decrease in E2-C fluorescence (HIV-1 PR [4]): strongly inhibited

Trp Arg Gly Ala Ala Met Val Arg Gly (WRGAAMVRG) [Clone 6]
decrease in sinHIV-GFP infection rate [1]: largest decrease

CC(C)(C)NC(=O)[C@@H]1CN(Cc2cccnc2)CCN1C[C@@H](O)C[C@@H](Cc1ccccc1)C(=O)N[C@H]1c2ccccc2C[C@H]1O [Indinavir]
PR inhibition read as GFP induction (HIV-1 PR [5]): inhibited PR, allowing robust GFP induction | toxicity (SupT1 cells): not toxic

— patent publication US20150273010A1 (priority 2012, published 2015)
